Experimental data taken from EP0385952A2, “Use of a naphthalenmethanamino derivative as antiinflammatory agent and pharmaceutical compositions containing it” (SANDOZ AG, priority 1989, dated 1990).

System: lactate dehydrogenase release
Assay: Cytotoxicity: release of lactate dehydrogenase
Format: cell-based
Settings: cytotoxicity control of the in vitro assays
Protocol: Macrophages 10 to 14 days old isolated from the bone marrow of mice are incubated in monolayers with the test compound in the presence of Concanavalin A (Con A) (100 µg/ml) as soluble stimulant. After 24 hours the cell-free medium is collected and macrophage activation is investigated biochemically as the extent of plasminogen activator release, assayed photometrically as the plasminogen-dependent amidolysis of D-Val-Phe-Lys-4-nitroanilide according to the principles described in J.C. Drapier et al., Biochemie 61 (1979) 463-471. Cell viability is assayed by measurement of lactate dehydrogenase release according to the method of H.U. Bergmeyer and E. Bernt, Methoden der Enzymatischen Analyse, 3. Auflage, Verlag Chemie (1974) 612-615, adapted as a kinetic assay using microtiter plates. All cultures are checked microscopically for qualitative morphological modification.
The test compound is added in various concentrations to monolayers of OF₁-mouse resident peritoneal macrophages isolated as described in J. Schnyder and M. Baggiolini, J. Exp. Med. 148 (1978) 435-450. […] The supernatants are then analysed by radioimmunoassay procedures for thromboxane B₂, prostaglandin E₂ and leukotriene C₄. Lactate dehydrogenase activities in the medium and cell lysates are also measured as an indication of cell toxicity.

## CN(C/C=C/c1ccc(O)cc1)Cc1cccc2ccccc12 [compound of the invention, (E)-N-methyl-N-[3-(4-hydroxyphenyl)-2-propenyl]-1-naphthalene-methanamine]
  release of lactate dehydrogenase: below 10%
